The values that follow are results of earlier work, collected in US20260373185A1, “METHODS FOR SEQUENTIALLY ADMINISTERING TAS-102 AND BCL-2 INHIBITOR FOR CANCER TREATMENT” (Health Research, Inc., priority 2023, published 2026).

Series [1] relates to p53-deficient cancers. The conditions noted are these: current DNA-damaging drugs.
Series [2] deals with A1. The conditions noted are these: relative to BCL-xL, BCL-2 and BCL-w.
Series [3] has as its target BCL-w. The conditions noted are these: cell-free assays.
Series [4] has as its system MCL-1.

As to `Nc1ccn([C@@H]2O[C@H](CO)[C@@H](O)C2(F)F)c(=O)n1` [gemcitabine], the “toxicity by p53 status” value in series [1] was “toxicity regardless of p53 status”.

Turning to `CC1(C)CCC(c2ccc(Cl)cc2)=C(CN2CCN(c3ccc(C(=O)NS(=O)(=O)c4ccc(N[C@H](CCN5CCOCC5)CSc5ccccc5)c(S(=O)(=O)C(F)(F)F)c4)cc3)CC2)C1` [Navitoclax], the “binding to A1” value in series [2] is listed as “binds more weakly”. In addition, the inhibition constant (Ki) in series [3] was no more than 1 nM. Further, in series [4] (relative to BCL-xL, BCL-2 and BCL-w), the “binding to Mcl-1” value is reported as “binds more weakly”.

As to `N.N.[Cl][Pt][Cl]` [cisplatin], the “toxicity by p53 status” value in series [1] is recorded as “toxicity regardless of p53 status”.

`CC1(C)CCC(CN2CCN(c3ccc(C(=O)NS(=O)(=O)c4ccc(NCC5CCOCC5)c([N+](=O)[O-])c4)c(Oc4cnc5[nH]ccc5c4)c3)CC2)=C(c2ccc(Cl)cc2)C1` [Venetoclax]: the “activity to MCL-1” value in series [4] (cell-free assays) is given as “no activity”.
